Data as given in Sander's compilation of Henry's law constants (doi:10.1016/s0378-4347(00)82845-5).

Assay: Henry solubility constant Hcp at 310 K (mol/(m3 Pa))
Conditions: reference: Guitart et al. (1989)

Henry solubility constant Hcp at 310 K | Structure (SMILES)
0.00028 | FC(F)(F)C(Cl)Br (configuration not stated) [1-bromo-1-chloro-2,2,2-trifluoroethane]
4.6e-06 | CC(C)CC(C)(C)C [2,2,4-trimethylpentane]
0.002 | c1ccccc1 [benzene]
8e-06 | CCCC [butane]
3.4e-05 | C1CCCCC1 [cyclohexane]
7.8e-05 | C1CC1 [cyclopropane]
0.0034 | ClCCl [dichloromethane]
0.0028 | CC(C)OC(C)C [diisopropyl ether]
0.043 | CCOC(C)=O [ethyl ethanoate]
6e-06 | CCCCCCC [heptane]
6.7e-06 | CCCCCC [hexane]
1.4e-06 | FS(F)(F)(F)(F)F [sulfur hexafluoride]

Structure (SMILES) | Henry solubility constant Hcp at 310 K
CC(Cl)(Cl)Cl [1,1,1-trichloroethane] | 0.00032
FC(F)OC(F)(F)C(F)Cl (configuration not stated) [2-chloro-1,1,2-trifluoroethyl difluoromethyl ether] | 0.00027
CCOCC [diethyl ether] | 0.0063
CC(C)=O [propanone] | 0.12
ClC=C(Cl)Cl [trichloroethene] | 0.00055
